# Assay results reported in US9169254B2, “Spiroimidazolone derivative” (Chugai Seiyaku Kabushiki Kaisha, priority 2009, dated 2015).
# Target: T1, human PTH1 receptor (Homo sapiens, UniProt Q03431)
# T1 sequence (Q03431 27-593): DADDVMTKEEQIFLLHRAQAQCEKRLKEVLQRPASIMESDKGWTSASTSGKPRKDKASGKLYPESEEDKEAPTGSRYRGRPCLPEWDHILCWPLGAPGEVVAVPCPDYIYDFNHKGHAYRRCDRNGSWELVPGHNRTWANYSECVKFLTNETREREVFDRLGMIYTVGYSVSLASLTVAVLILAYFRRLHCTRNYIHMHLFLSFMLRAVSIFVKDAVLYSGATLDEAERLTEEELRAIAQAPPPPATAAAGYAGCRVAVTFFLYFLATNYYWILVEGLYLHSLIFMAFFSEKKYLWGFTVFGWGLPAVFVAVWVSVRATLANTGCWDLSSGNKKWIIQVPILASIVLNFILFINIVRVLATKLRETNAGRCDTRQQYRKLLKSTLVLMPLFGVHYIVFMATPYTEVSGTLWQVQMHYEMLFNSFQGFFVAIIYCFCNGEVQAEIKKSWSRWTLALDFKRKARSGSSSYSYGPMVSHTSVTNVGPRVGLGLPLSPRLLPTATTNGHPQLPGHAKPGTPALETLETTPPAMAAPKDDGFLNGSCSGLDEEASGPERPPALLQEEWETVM
# Test: In vitro cAMP signal activity in HKRK-B7 cells (LLC-PK1 cells overexpressing the human PTH1 receptor)
# Assay type: cell-based
# Conditions: HKRK-B7 cells; compound at 1×10^−3 M; cAMP produced as percentage of that produced by hPTH(1-34) at 100 nM
row,Compound,cAMP production activity (%)
1,"Cc1cc(C(=O)N2CCC(O)(CF)CC2)cc(C)c1/C=C/S(=O)(=O)N1CCC2(CC1)N=C(c1ccc(OCC(F)(F)C(F)(F)F)c(C(F)(F)F)c1)NC2=O [Compound 1249, 8-{(E)-2-[4-(4-fluoromethyl-4-hydroxy-piperidine-1-carbonyl)-2,6-dimethyl-phenyl]-ethenesulfonyl}-2-[4-(2,2,3,3,3-pentafluoro-propoxy)-3-trifluoromethyl-phenyl]-1,3,8-triaza-spiro[4.5]dec-1-en-4-one]",62%
2,"Cc1cc(C(=O)N2CCC(O)(CF)CC2)cc(C)c1/C=C/S(=O)(=O)N1CCC2(CC1)N=C(c1ccc(OCCCC(F)(F)F)c(C(F)(F)F)c1)NC2=O [Compound 1250, 8-{(E)-2-[4-(4-fluoromethyl-4-hydroxy-piperidine-1-carbonyl)-2,6-dimethyl-phenyl]-ethenesulfonyl}-2-[4-(4,4,4-trifluoro-butoxy)-3-trifluoromethyl-phenyl]-1,3,8-triaza-spiro[4.5]dec-1-en-4-one]",67%
3,"Cc1cc(C(=O)N2CCC(O)(CF)CC2)cc(C)c1/C=C/S(=O)(=O)N1CCC2(CC1)N=C(c1ccc(OCC(F)(F)C(F)F)c(C(F)(F)F)c1)NC2=O [Compound 1251, 8-{(E)-2-[4-(4-fluoromethyl-4-hydroxy-piperidine-1-carbonyl)-2,6-dimethyl-phenyl]-ethenesulfonyl}-2-[4-(2,2,3,3-tetrafluoro-propoxy)-3-trifluoromethyl-phenyl]-1,3,8-triaza-spiro[4.5]dec-1-en-4-one]",56%
4,"Cc1cc(C(=O)N2CCC(O)(CF)CC2)cc(C)c1/C=C/S(=O)(=O)N1CCC2(CC1)N=C(c1ccc(OCCCC(F)(F)C(F)(F)F)c(C(F)(F)F)c1)NC2=O [Compound 1252, 8-{(E)-2-[4-(4-fluoromethyl-4-hydroxy-piperidine-1-carbonyl)-2,6-dimethyl-phenyl]-ethenesulfonyl}-2-[4-(4,4,5,5,5-pentafluoro-pentyloxy)-3-trifluoromethyl-phenyl]-1,3,8-triaza-spiro[4.5]dec-1-en-4-one]",72%
5,"[2H]C([2H])([2H])C([2H])([2H])Oc1ccc(C2=NC3(CCN(S(=O)(=O)/C=C/c4c(C)cc(C(=O)N5CCC(O)(CF)CC5)cc4C)CC3)C(=O)N2)cc1C(F)(F)F [Compound 1253, 2-(4-[1,1,2,2,2-^2H5]ethoxy-3-trifluoromethyl-phenyl)-8-{(E)-2-[4-(4-fluoromethyl-4-hydroxy-piperidine-1-carbonyl)-2,6-dimethyl-phenyl]-ethenesulfonyl}-1,3,8-triaza-spiro[4.5]dec-1-en-4-one]",81%
6,"Cc1cc(C2=NC3(CCN(S(=O)(=O)/C=C/c4c(C)cc(C(=O)N5CCC(O)(CF)CC5)cc4C)CC3)C(=O)N2)ccc1C(F)(F)F [Compound 1254, 8-{(E)-2-[4-(4-fluoromethyl-4-hydroxy-piperidine-1-carbonyl)-2,6-dimethyl-phenyl]-ethenesulfonyl}-2-(3-methyl-4-trifluoromethyl-phenyl)-1,3,8-triaza-spiro[4.5]dec-1-en-4-one]",87%
7,"Cc1cc(C(=O)N2CCC(O)(CF)CC2)cc(C)c1/C=C/S(=O)(=O)N1CCC2(CC1)N=C(c1ccc(C(F)F)c(F)c1)NC2=O [Compound 1255, 2-(4-difluoromethyl-3-fluoro-phenyl)-8-{(E)-2-[4-(4-fluoromethyl-4-hydroxy-piperidine-1-carbonyl)-2,6-dimethyl-phenyl]-ethenesulfonyl}-1,3,8-triaza-spiro[4.5]dec-1-en-4-one]",66%
8,"Cc1cc(C(=O)N2CCC(O)(CF)CC2)cc(C)c1/C=C/S(=O)(=O)N1CCC2(CC1)N=C(c1ccc(F)c(C(F)F)c1)NC2=O [Compound 1256, 2-(3-difluoromethyl-4-fluoro-phenyl)-8-{(E)-2-[4-(4-fluoromethyl-4-hydroxy-piperidine-1-carbonyl)-2,6-dimethyl-phenyl]-ethenesulfonyl}-1,3,8-triaza-spiro[4.5]dec-1-en-4-one]",72%
